# Reference: patent US20260286316A1, “METHOD OF PRODUCTION OF MODIFIED PHAGE AND METHOD OF TREATMENT USING SAME” (priority 2022, published 2026)
# Where two headings read alike, the source gives them in different places.
# How the values were obtained:
# S. aureus CI3 [1] = assay: Antibiotic sensitivity of the isolate selected for in vivo experiments; type: cell-based, Staphylococcus aureus
# Procedure: (§1) The minimum inhibitory concentration (MIC) of amoxicillin, vancomycin, erythromycin, clindamycin and azithromycin against the S. aureus strains was assessed using the broth microdilution technique as previously described (Wiegand I et al., Nature protocols 3 (2): 163-175, 2008) and breakpoints defined according to CSLI guidelines. Clinical strains resistant to at least one antibiotic in three or more antibiotic categories were defined as multidrug resistant (MDR).
# A fresh culture of CI3 on 1.5% TSA plates was prepared two days before inoculation. A single colony was resuspended in 0.9% saline (ca. 2 ml) to turbidity reading 0.5 McFarland Units and then a 1 in 100 dilution in TSB was cultured overnight one day before the in vivo experiment. CI3 pellets were harvested and resuspended in fresh TSB to reach 2.5×10^9 Colony Forming Units (CFU)/ml.
# S. aureus CI3 [2] = assay: Phage combined with ½ MIC antibiotics on planktonic S. aureus (OD600), CI3; type: cell-based, Staphylococcus aureus; conditions: ½ MIC antibiotic, phage MOI=0.2, 24 hours
# Procedure: (§2) Initial screening was performed in 100 μl in 96 well plates, with follow up experiments in 10 mL culture volume. S. aureus strains were grown on 1.5% Tryptone Soya Agar (TSA) at 37° C. overnight. Single colonies were transferred to Tryptone Soya Broth (TSB) to generate a culture with a starting concentration of 5×10^5 CFU/ml. […] Antibiotics were added to the cultures at ½ MIC (according to the pretest MIC of antibiotics) if required. Optical density (OD) readings at 600 nm were recorded at 24 hours to assess the growth of bacteria co-inoculated with phage unless otherwise specified. Uninoculated, fresh media was included as a sterility control.
# S. aureus CI3 [3] = assay: Rat rhinosinusitis model, efficacy arm (sinus mucosa CFU, biofilm biomass, histopathology); type: in vivo, Sprague Dawley rats
# Source text: Rat nasal tissues were fixed in 10% neutral buffered formalin. Tissue samples were then decalcified using 9.5% nitric acid in 1% ethylenediaminetetracetic acid (EDTA), processed to paraffin wax, and 6 μm sections cut and stained with H&E. The samples were examined by a veterinary pathologist blinded to the treatments given.
# An established murine rhinosinusitis model was used with modifications (see YU C-j et al., Chinese Journal of Otorhinolaryngology-Skull Base Surgery 6, 2011; Zhang F et al., Am J Rhinol Allergy 27 (5): 361-366, 2013; and Jin M et al., Ear Arch Oto-Rhino-L 268 (6): 857-861, 2011). […] The sponges were placed at approximately 15 mm from the anterior nostril, located in the ostiomeatal complex. The rats were monitored for a nine-day period to allow for mucosal biofilms to form, and, on the tenth day, the sponges were removed. A two-day recovery was given to the rat before treatments begun. […] Treatments were administered intranasally twice a day for 14 days. Rats were monitored for weight and respiratory alterations (respiration rate; nasal discharge, hyperaemia or pruritus; and sneezing) during treatment, and, 14 days post-treatment initiation, the rats were humanely sacrificed. Their sinus mucosa was harvested for CFU counting, biofilm quantification, histopathology, and phage enumeration. […]
# The quantification of biofilm biomass on sinus mucosa was determined using an established protocol (Singhal D et al., editors. Quantitative analysis of in vivo mucosal bacterial biofilms. International Forum of Allergy & Rhinology; 2012: Wiley Online Library (27). Briefly, the frontal sinus mucosa was harvested and placed into Dulbecco's Modified Eagle's Medium (Life Technologies, Carlsbad, CA, United States of America) on ice. One piece of mucosa from each frontal sinus was stained with a LIVE/DEAD® BacLight Bacterial Viability Kit (Life Technologies Australia). The stained mucosa was then examined at 20× magnification using a confocal laser scanning microscope (Zeiss LSM700, Carl Zeiss AG, Oberkochen, Germany). […]
# [4] = system: S. aureus isolates (15 clinical isolates and 2 ATCC strains); assay: Antibiotic sensitivity testing, 17 isolates; type: cell-based, Staphylococcus aureus; conditions: of 17 S. aureus isolates
# Procedure: S. aureus ATCC51650 and ATCC25923 were obtained from the American Type Culture Collection (Manassas, VA, United States of America) and used as reference strains. In addition, a total of 15 S. aureus clinical isolates (CIs) were isolated from the sinonasal cavities of chronic sinusitis (CRS) patients. In each case, S. aureus was cultured by an independent diagnostic laboratory and the antibiotic susceptibility determined by disc diffusion on Mueller-Hinton agar per Clinical and Laboratory Standards Institute (CLSI) recommendations (Adelaide Pathology Partners, Mile End, SA, Australia). Bacteria were isolated on Columbian horse blood agar plates, colistin nalidixic acid plates, or cystine lactose electrolyte-deficient plates (Oxoid Australia Pty Ltd, Thebarton, SA, Australia). Positive cultures were confirmed to be S. aureus using latex agglutination testing.
# as §1
# [5] = system: S. aureus ATCC51650 and CIs (CI2, CI3, CI4, CI6, CI7, CI8, CI9, and CI11); type: cell-based, Staphylococcus aureus
# Procedure: as §2
# A synergistic effect was defined as a statistically significant decrease in optical density (OD) that was larger than the combined decrease in OD of antibiotic and phage only controls.
smiles,measurement,setting,value
CC[C@H]1OC(=O)[C@H](C)[C@@H](O[C@H]2C[C@@](C)(OC)[C@@H](O)[C@H](C)O2)[C@H](C)[C@@H](O[C@@H]2O[C@H](C)C[C@H](N(C)C)[C@H]2O)[C@](C)(O)C[C@@H](C)CN(C)[C@H](C)[C@@H](O)[C@]1(C)O [azithromycin],antibiotic sensitivity of the isolate,S. aureus CI3 [1],sensitive
same,"synergistic effects with phage J-Sa36, Sa83 and Sa87 on bacterial viability (OD600)",S. aureus CI3 [2],synergistic effects
same,"biofilm biomass on sinus mucosa compared to control, single agent",S. aureus CI3 [3]; 0.5×10^10 PFU/ml Sa87 or ½ MIC antibiotic alone,significant increase in biomass
same,"histopathology of the maxilloturbinates, single agent","S. aureus CI3 [3]; Sa87, ½ MIC clindamycin or ½ MIC azithromycin only",evidence of cilial denudation and surface epithelial erosion
same,isolates exhibiting resistance to the antibiotic,[4],two
CC1(C)S[C@@H]2[C@H](NC(=O)[C@H](N)c3ccc(O)cc3)C(=O)N2[C@H]1C(=O)O [amoxicillin],additive or synergistic effect of the antibiotic combined with phage,"[5]; ½ MIC antibiotic with J-Sa36, Sa83 or Sa87 (MOI=0.2)",None of the combinations of phage with either of the cell wall actives (amoxicillin and vancomycin) showed any significant additive or synergistic effects
CC[C@H]1OC(=O)[C@H](C)[C@@H](O[C@H]2C[C@@](C)(OC)[C@@H](O)[C@H](C)O2)[C@H](C)[C@@H](O[C@@H]2O[C@H](C)C[C@H](N(C)C)[C@H]2O)[C@](C)(O)C[C@@H](C)C(=O)[C@H](C)[C@@H](O)[C@]1(C)O [erythromycin],"synergistic effects with phage J-Sa36, Sa83 and Sa87 on bacterial viability (OD600)",S. aureus CI3 [2],synergistic effects
same,isolates exhibiting resistance to the antibiotic,[4],three
CN[C@H](CC(C)C)C(=O)N[C@H]1C(=O)N[C@@H](CC(N)=O)C(=O)N[C@H]2C(=O)N[C@H]3C(=O)N[C@H](C(=O)N[C@H](C(=O)O)c4cc(O)cc(O)c4-c4cc3ccc4O)[C@H](O)c3ccc(c(Cl)c3)Oc3cc2cc(c3O[C@@H]2O[C@H](CO)[C@@H](O)[C@H](O)[C@H]2O[C@H]2C[C@](C)(N)[C@H](O)[C@H](C)O2)Oc2ccc(cc2Cl)[C@H]1O [vancomycin],additive or synergistic effect of the antibiotic combined with phage,[5],None of the combinations of phage with either of the cell wall actives (amoxicillin and vancomycin) showed any significant additive or synergistic effects
